We go through four molecules from patent publication US11034650B2, “Compounds useful for treating a Mannheimia haemolytica or Histophilus somni infection” (Intervet Inc., priority 2016, dated 2021).

SMILES strings stand for the structures. Converted amounts (≈) assume the structure as drawn.

One assay deals with Mannheimia haemolytica MH 6357 (M7/2, reference strain, cattle infection strain). The assay can be described thus: MIC, broth-microdilution (CLSI VET01-A4), strain MH 6357. Type of assay: cell-based. As to conditions: Mannheimia haemolytica strain MH 6357, broth-microdilution; unit assumed. The method, boiled down: (§1)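 Growth inhibition is scored visually on a doubling dilution series. The reported MIC corresponds to the lowest concentration free of turbidity, with results assessed under CLSI VET01-S3.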
(In general: Broth dilution looks for growth in wells or tubes with falling amounts of substance.)
`CC(C)([C@H](NC(=O)c1ccc(C#Cc2ccc(CNCC#N)cc2)cc1)C(=O)NO)S(C)(=O)=O` [Compound 266] displayed an MIC MH 6357 of 0.8 µg/mL (≈ 1.66 µM).
On the same count and under the same terms, the same measure for `CC1CN(Cc2ccc(C#Cc3ccc(C(=O)N[C@@H](CO)C(=O)NO)cc3)cc2)CC(C)O1` (stereo partly shown) [Compound 155]: 12.5 µg/mL (≈ 27.7 µM); for `CON=C(C)[C@H](NC(=O)c1ccc(C#Cc2ccc(CNC3CCCC3)cc2)cc1)C(=O)NO` [Compound 386]: 12.5 µg/mL (≈ 27 µM); for `O=C(N[C@@H](CO)C(=O)NO)c1ccc(C#Cc2ccc(CNC3CCCCC3)cc2)cc1` [Compound 149]: 12.5 µg/mL (≈ 28.7 µM).

A further assay concerns Mannheimia haemolytica MH 6374 (ATCC 33396, reference strain). Kind of assay: MIC, broth-microdilution (CLSI VET01-A4), strain MH 6374. It is filed as cell-based. The following applies: Mannheimia haemolytica strain MH 6374, broth-microdilution; unit assumed. The method, boiled down:
as §1
In turn, `CC(C)([C@H](NC(=O)c1ccc(C#Cc2ccc(CNCC#N)cc2)cc1)C(=O)NO)S(C)(=O)=O` [Compound 266] registered an MIC MH 6374 of 0.4 µg/mL (≈ 0.829 µM).
`CC1CN(Cc2ccc(C#Cc3ccc(C(=O)N[C@@H](CO)C(=O)NO)cc3)cc2)CC(C)O1` (stereo partly shown) [Compound 155] yielded an MIC MH 6374 of 12.5 µg/mL (≈ 27.7 µM).
In turn, `CON=C(C)[C@H](NC(=O)c1ccc(C#Cc2ccc(CNC3CCCC3)cc2)cc1)C(=O)NO` [Compound 386] gave an MIC MH 6374 of 12.5 µg/mL (≈ 27 µM).
Same read-out and setting: then `O=C(N[C@@H](CO)C(=O)NO)c1ccc(C#Cc2ccc(CNC3CCCCC3)cc2)cc1` [Compound 149], with 25 µg/mL (≈ 57.4 µM).

The subject of another assay is Mannheimia haemolytica MH 10720 (154, BRD field isolate). The assay can be described thus: MIC, broth-microdilution (CLSI VET01-A4), strain MH 10720. As to conditions: Mannheimia haemolytica strain MH 10720, broth-microdilution; unit assumed. It is filed as cell-based. The gist of the method: as §1
Molecule `CC(C)([C@H](NC(=O)c1ccc(C#Cc2ccc(CNCC#N)cc2)cc1)C(=O)NO)S(C)(=O)=O` [Compound 266] yielded an MIC MH 10720 of at most 0.1 µg/mL.
Take `CC1CN(Cc2ccc(C#Cc3ccc(C(=O)N[C@@H](CO)C(=O)NO)cc3)cc2)CC(C)O1` (stereo partly shown) [Compound 155]: the MIC MH 10720 was 1.6 µg/mL (≈ 3.54 µM).
Consider `CON=C(C)[C@H](NC(=O)c1ccc(C#Cc2ccc(CNC3CCCC3)cc2)cc1)C(=O)NO` [Compound 386], for which the MIC MH 10720 worked out at 1.6 µg/mL (≈ 3.46 µM).
`O=C(N[C@@H](CO)C(=O)NO)c1ccc(C#Cc2ccc(CNC3CCCCC3)cc2)cc1` [Compound 149] displayed an MIC MH 10720 of 3.1 µg/mL (≈ 7.12 µM).

The next assay deals with Mannheimia haemolytica MH 12587 (1071, BRD field isolate, macrolide-resistance: erm+, E+). Kind of assay: MIC, broth-microdilution (CLSI VET01-A4), strain MH 12587. Type of assay: cell-based. As to conditions: Mannheimia haemolytica strain MH 12587, broth-microdilution; unit assumed. The gist of the method: as §1
As to `CC(C)([C@H](NC(=O)c1ccc(C#Cc2ccc(CNCC#N)cc2)cc1)C(=O)NO)S(C)(=O)=O` [Compound 266], the MIC MH 12587 was determined as 1.6 µg/mL (≈ 3.32 µM).
On the same count and under the same terms, then `CC1CN(Cc2ccc(C#Cc3ccc(C(=O)N[C@@H](CO)C(=O)NO)cc3)cc2)CC(C)O1` (stereo partly shown) [Compound 155], with 25 µg/mL (≈ 55.4 µM); and `CON=C(C)[C@H](NC(=O)c1ccc(C#Cc2ccc(CNC3CCCC3)cc2)cc1)C(=O)NO` [Compound 386], with 1.6 µg/mL (≈ 3.46 µM); and `O=C(N[C@@H](CO)C(=O)NO)c1ccc(C#Cc2ccc(CNC3CCCCC3)cc2)cc1` [Compound 149], with 25 µg/mL (≈ 57.4 µM).

The subject of another assay is Mannheimia haemolytica MH 13065 (XB0446-6003.9, BRD field isolate). The assay can be described thus: MIC, broth-microdilution (CLSI VET01-A4), strain MH 13065. It is filed as cell-based. As to conditions: Mannheimia haemolytica strain MH 13065, broth-microdilution; unit assumed. The method, boiled down: as §1
Molecule `CC(C)([C@H](NC(=O)c1ccc(C#Cc2ccc(CNCC#N)cc2)cc1)C(=O)NO)S(C)(=O)=O` [Compound 266] had an MIC MH 13065 of 0.8 µg/mL (≈ 1.66 µM).
Still for that read-out and setting: then `CC1CN(Cc2ccc(C#Cc3ccc(C(=O)N[C@@H](CO)C(=O)NO)cc3)cc2)CC(C)O1` (stereo partly shown) [Compound 155], with 12.5 µg/mL (≈ 27.7 µM); and `CON=C(C)[C@H](NC(=O)c1ccc(C#Cc2ccc(CNC3CCCC3)cc2)cc1)C(=O)NO` [Compound 386], with 12.5 µg/mL (≈ 27 µM).
Turning to `O=C(N[C@@H](CO)C(=O)NO)c1ccc(C#Cc2ccc(CNC3CCCCC3)cc2)cc1` [Compound 149], the MIC MH 13065 stood at 25 µg/mL (≈ 57.4 µM).

The subject of another assay is Mannheimia haemolytica MH 13093 (XB0472-6014.1, BRD field isolate). The assay can be described thus: MIC, broth-microdilution (CLSI VET01-A4), strain MH 13093. As to conditions: Mannheimia haemolytica strain MH 13093, broth-microdilution; unit assumed. It is filed as cell-based. The gist of the method: as §1
`CC(C)([C@H](NC(=O)c1ccc(C#Cc2ccc(CNCC#N)cc2)cc1)C(=O)NO)S(C)(=O)=O` [Compound 266]: the MIC MH 13093 is 0.8 µg/mL (≈ 1.66 µM).
For `CC1CN(Cc2ccc(C#Cc3ccc(C(=O)N[C@@H](CO)C(=O)NO)cc3)cc2)CC(C)O1` (stereo partly shown) [Compound 155], the MIC MH 13093 was 25 µg/mL (≈ 55.4 µM).
The same measure, in the same setting: the same measure for `CON=C(C)[C@H](NC(=O)c1ccc(C#Cc2ccc(CNC3CCCC3)cc2)cc1)C(=O)NO` [Compound 386]: 12.5 µg/mL (≈ 27 µM).
Still for that read-out and setting: then `O=C(N[C@@H](CO)C(=O)NO)c1ccc(C#Cc2ccc(CNC3CCCCC3)cc2)cc1` [Compound 149], with 25 µg/mL (≈ 57.4 µM).

For another assay, the system named is Pasteurella multocida PM 6267 (P 2225 (L386), reference strain, mouse infection strain). Kind of assay: MIC, broth-microdilution (CLSI VET01-A4), strain PM 6267. It is filed as cell-based. As to conditions: Pasteurella multocida strain PM 6267, broth-microdilution; unit assumed. The method, boiled down:
as §1
For `CC(C)([C@H](NC(=O)c1ccc(C#Cc2ccc(CNCC#N)cc2)cc1)C(=O)NO)S(C)(=O)=O` [Compound 266], the MIC PM 6267 was at most 0.1 µg/mL.
Regarding `CC1CN(Cc2ccc(C#Cc3ccc(C(=O)N[C@@H](CO)C(=O)NO)cc3)cc2)CC(C)O1` (stereo partly shown) [Compound 155], the MIC PM 6267 was at most 0.1 µg/mL.
As for `CON=C(C)[C@H](NC(=O)c1ccc(C#Cc2ccc(CNC3CCCC3)cc2)cc1)C(=O)NO` [Compound 386], the MIC PM 6267 amounted to 50 µg/mL (≈ 108 µM).
Same read-out and setting: the same measure for `O=C(N[C@@H](CO)C(=O)NO)c1ccc(C#Cc2ccc(CNC3CCCCC3)cc2)cc1` [Compound 149]: 0.8 µg/mL (≈ 1.84 µM).

Another assay deals with Pasteurella multocida PM 6391 (ATCC 43137, reference strain). Kind of assay: MIC, broth-microdilution (CLSI VET01-A4), strain PM 6391. It is filed as cell-based. As to conditions: Pasteurella multocida strain PM 6391, broth-microdilution; unit assumed. The method, boiled down:
as §1
`CC(C)([C@H](NC(=O)c1ccc(C#Cc2ccc(CNCC#N)cc2)cc1)C(=O)NO)S(C)(=O)=O` [Compound 266] yielded an MIC PM 6391 of at most 0.1 µg/mL.
Regarding `CC1CN(Cc2ccc(C#Cc3ccc(C(=O)N[C@@H](CO)C(=O)NO)cc3)cc2)CC(C)O1` (stereo partly shown) [Compound 155], the MIC PM 6391 came to 0.4 µg/mL (≈ 0.886 µM).
The same measure, in the same setting: the same measure for `CON=C(C)[C@H](NC(=O)c1ccc(C#Cc2ccc(CNC3CCCC3)cc2)cc1)C(=O)NO` [Compound 386]: 0.4 µg/mL (≈ 0.865 µM); for `O=C(N[C@@H](CO)C(=O)NO)c1ccc(C#Cc2ccc(CNC3CCCCC3)cc2)cc1` [Compound 149]: 1.6 µg/mL (≈ 3.67 µM).

The subject of the next assay is Pasteurella multocida PM 10775 (080130003051, BRD field isolate). Kind of assay: MIC, broth-microdilution (CLSI VET01-A4), strain PM 10775. As to conditions: Pasteurella multocida strain PM 10775, broth-microdilution; unit assumed. Type of assay: cell-based. The method, boiled down: as §1
Molecule `CC(C)([C@H](NC(=O)c1ccc(C#Cc2ccc(CNCC#N)cc2)cc1)C(=O)NO)S(C)(=O)=O` [Compound 266] returned an MIC PM 10775 of at most 0.1 µg/mL.
On the same count and under the same terms, then `CC1CN(Cc2ccc(C#Cc3ccc(C(=O)N[C@@H](CO)C(=O)NO)cc3)cc2)CC(C)O1` (stereo partly shown) [Compound 155], with at most 0.1 µg/mL; and `CON=C(C)[C@H](NC(=O)c1ccc(C#Cc2ccc(CNC3CCCC3)cc2)cc1)C(=O)NO` [Compound 386], with 1.6 µg/mL (≈ 3.46 µM).
The molecule `O=C(N[C@@H](CO)C(=O)NO)c1ccc(C#Cc2ccc(CNC3CCCCC3)cc2)cc1` [Compound 149] registered an MIC PM 10775 of at most 0.1 µg/mL.

The test system of another assay is Pasteurella multocida PM 12080 (IV102277-0093, BRD field isolate). Kind of assay: MIC, broth-microdilution (CLSI VET01-A4), strain PM 12080. It is filed as cell-based. The following applies: Pasteurella multocida strain PM 12080, broth-microdilution; unit assumed. The gist of the method: as §1
As for `CC(C)([C@H](NC(=O)c1ccc(C#Cc2ccc(CNCC#N)cc2)cc1)C(=O)NO)S(C)(=O)=O` [Compound 266], the MIC PM 12080 was at most 0.1 µg/mL.
Still for that read-out and setting: then `CC1CN(Cc2ccc(C#Cc3ccc(C(=O)N[C@@H](CO)C(=O)NO)cc3)cc2)CC(C)O1` (stereo partly shown) [Compound 155], with 0.4 µg/mL (≈ 0.886 µM); and `CON=C(C)[C@H](NC(=O)c1ccc(C#Cc2ccc(CNC3CCCC3)cc2)cc1)C(=O)NO` [Compound 386], with 0.4 µg/mL (≈ 0.865 µM).
For the molecule `O=C(N[C@@H](CO)C(=O)NO)c1ccc(C#Cc2ccc(CNC3CCCCC3)cc2)cc1` [Compound 149], the MIC PM 12080 was 1.6 µg/mL (≈ 3.67 µM).
